Source: EPA's ToxRefDB 2

How the values were obtained:
rat [1] = conditions: Combined chronic toxicity/carcinogenicity, sprague dawley, Oral, Feed, dose end: 28 month
dog [2] = conditions: Chronic toxicity, beagle, Oral, Feed, dose end: 52 week
rat [3] = conditions: Subchronic oral toxicity in rodents, sprague dawley, Feed, dose end: 90 day, group: cholinesterase, cholinesterase / cholinesterase / cholinesterase / brain cholinesterase (che)
rat [4] = conditions: Prenatal developmental toxicity study, sprague dawley, Oral, Gavage/Intubation, dose end: 15 GD
rat [5] = conditions: Prenatal developmental toxicity study, sprague dawley, Oral, Gavage/Intubation, dose end: 15 GD; remark: listed apart in the source
rat [6] = conditions: Multigenerational reproductive toxicity study, wistar, Oral, Feed, dose end: 2 generation
rabbit = conditions: Prenatal developmental toxicity study, new zealand white, Oral, Gavage/Intubation, dose end: 19 GD
mouse [7] = conditions: Combined chronic toxicity/carcinogenicity, cd1, Oral, Feed, dose end: 104 week, group: systemic
mouse [8] = conditions: Carcinogenicity, cd1, Oral, Feed, dose end: 104 week, group: systemic
dog [9] = conditions: Chronic toxicity; beagle; Oral; Feed; dose end: 6 month; group: systemic; systemic / clinical chemistry / cholesterol / cholesterol + systemic / organ weight / liver / absolute + systemic / organ weight / liver / …
mouse [10] = conditions: Subchronic oral toxicity in rodents, b6c3f1, Gavage/Intubation, dose end: 14 week, group: systemic
rat [11] = conditions: Subchronic oral toxicity in rodents, fischer, Gavage/Intubation, dose end: 14 week, group: systemic
rat [12] = conditions: Combined chronic toxicity/carcinogenicity, fischer, Oral, Gavage/Intubation, dose end: 104 week, group: systemic
mouse [13] = conditions: Combined chronic toxicity/carcinogenicity, b6c3f1, Oral, Gavage/Intubation, dose end: 104 week, group: systemic
[14] = group: cholinesterase, cholinesterase / cholinesterase / cholinesterase / brain cholinesterase (che) + cholinesterase / cholinesterase / cholinesterase / …
[15] = group: systemic, systemic / pathology microscopic / adrenal gland / pheochromocytoma benign + systemic / in life observation / clinical signs / aggressive …
[16] = group: cholinesterase, cholinesterase / cholinesterase / cholinesterase / brain cholinesterase (che)
[17] = group: systemic, systemic / hematology / erythrocyte (rbc) count differential / erythrocyte (rbc) + systemic / hematology / hematocrit (hct) / hematocrit (…
[18] = group: developmental, developmental / developmental malformation / bone / ossification sites
[19] = group: maternal, systemic / in life observation / body weight / body weight + systemic / in life observation / body weight / body weight gain + systemic / in…
[20] = group: developmental, developmental / developmental malformation / bone / bipartite ossification + developmental / developmental malformation / bone / short …
[21] = group: maternal, systemic / in life observation / body weight / body weight gain
[22] = group: maternal, systemic / in life observation / body weight / body weight gain + systemic / in life observation / food consumption / food consumption
[23] = group: offspring, systemic / in life observation / body weight / offspring (pup) weight gain + systemic / organ weight / liver / relative to body weight
[24] = group: offspring, systemic / in life observation / body weight / offspring (pup) weight gain + systemic / organ weight / liver / relative to body weight + …
[25] = group: parental, systemic / organ weight / kidney / absolute + systemic / organ weight / kidney / relative to body weight + systemic / organ weight / liver…
[26] = group: reproductive, reproductive / reproductive performance / precoital interval / precoital interval
[27] = group: developmental, developmental / developmental malformation / bone / incomplete ossification + developmental / developmental malformation / bone / …
[28] = group: developmental, developmental / developmental malformation / bone / unossified
[29] = group: maternal, reproductive / reproductive performance / aborted / aborted + systemic / in life observation / body weight / body weight gain
[30] = systemic / organ weight / liver / absolute + systemic / pathology gross / spleen / enlarged + systemic / pathology microscopic / kidney / …
[31] = systemic / organ weight / liver / absolute + systemic / organ weight / liver / relative to body weight + systemic / pathology gross / spleen…
[32] = systemic / pathology microscopic / liver / [other]
[33] = systemic / pathology microscopic / adrenal gland / atrophy + systemic / pathology microscopic / adrenal gland / vacuolization + systemic / …
[34] = systemic / in life observation / body weight / body weight + systemic / in life observation / body weight / body weight gain
[35] = systemic / in life observation / body weight / body weight + systemic / in life observation / body weight / body weight gain + systemic / …
[36] = systemic / pathology microscopic / liver / basophilic focus
[37] = systemic / pathology microscopic / pancreas / atrophy + systemic / pathology microscopic / pancreas / hyperplasia + systemic / pathology …
[38] = systemic / pathology microscopic / salivary glands / cytoplasmic alteration
[39] = systemic / pathology microscopic / salivary glands / cytoplasmic alteration + systemic / pathology microscopic / liver / carcinoma

SMILES: COP(=O)(NC(C)=O)SC (centres undefined) [Acephate]
- LEL (rat [1]; [14]): 0.25 mg/kg/day
- LOAEL (rat [1]; [14]): 35 mg/kg/day
- NEL (rat [1]; [14]): < 0.25 mg/kg/day
- NOAEL (rat [1]; [14]): 2.5 mg/kg/day
- LEL (rat [1]; [15]): 0.25 mg/kg/day
- LOAEL (rat [1]; [15]): > 35 mg/kg/day
- NEL (rat [1]; [15]): < 0.25 mg/kg/day
- NOAEL (rat [1]; [15]): ≥ 35 mg/kg/day
- LEL (dog [2]; [16]): 0.27 mg/kg/day
- LOAEL (dog [2]; [16]): 0.27 mg/kg/day
- NEL (dog [2]; [16]): < 0.27 mg/kg/day
- NOAEL (dog [2]; [16]): < 0.27 mg/kg/day
- LEL (dog [2]; [17]): 20.2 mg/kg/day
- LOAEL (dog [2]; [17]): 20.2 mg/kg/day
- NEL (dog [2]; [17]): 3.11 mg/kg/day
- NOAEL (dog [2]; [17]): 3.11 mg/kg/day
- LEL (rat [3]): 0.12 mg/kg/day
- LOAEL (rat [3]): 0.12 mg/kg/day
- NEL (rat [3]): < 0.12 mg/kg/day
- NOAEL (rat [3]): < 0.12 mg/kg/day
- LEL (rat [4]; [18]): 75 mg/kg/day
- LOAEL (rat [4]; [18]): 75 mg/kg/day
- NEL (rat [4]; [18]): 20 mg/kg/day
- NOAEL (rat [4]; [18]): 20 mg/kg/day
- LEL (rat [4]; [19]): 20 mg/kg/day
- LOAEL (rat [4]; [19]): 20 mg/kg/day
- NEL (rat [4]; [19]): 5 mg/kg/day
- NOAEL (rat [4]; [19]): 5 mg/kg/day

SMILES: CNc1cnn(-c2cccc(C(F)(F)F)c2)c(=O)c1Cl [Norflurazon]
- LEL (rat [5]; [20]): 400 mg/kg/day
- LOAEL (rat [5]; [20]): > 400 mg/kg/day
- NEL (rat [5]; [20]): 200 mg/kg/day
- NOAEL (rat [5]; [20]): ≥ 400 mg/kg/day
- LOAEL (rat [5]; [21]): 100 mg/kg/day
- NOAEL (rat [5]; [21]): < 100 mg/kg/day
- LEL (rat [5]; [22]): 100 mg/kg/day
- NEL (rat [5]; [22]): < 100 mg/kg/day
- LEL (rat [6]; [23]): 67.8 mg/kg/day
- LOAEL (rat [6]; [23]): 67.8 mg/kg/day
- NEL (rat [6]; [24]): 13.2 mg/kg/day
- NOAEL (rat [6]; [24]): 13.2 mg/kg/day
- LEL (rat [6]; [25]): 50.8 mg/kg/day
- LOAEL (rat [6]; [25]): 50.8 mg/kg/day
- NEL (rat [6]; [25]): 10.2 mg/kg/day
- NOAEL (rat [6]; [25]): 10.2 mg/kg/day
- LEL (rat [6]; [26]): 102 mg/kg/day
- LOAEL (rat [6]; [26]): 102 mg/kg/day
- NEL (rat [6]; [26]): 50.8 mg/kg/day
- NOAEL (rat [6]; [26]): 50.8 mg/kg/day
- LOAEL (rabbit; [27]): 30 mg/kg/day
- NOAEL (rabbit; [27]): 10 mg/kg/day
- LEL (rabbit; [28]): 10 mg/kg/day
- NEL (rabbit; [28]): < 10 mg/kg/day
- LEL (rabbit; [29]): 60 mg/kg/day
- LOAEL (rabbit; [29]): 60 mg/kg/day
- NEL (rabbit; [29]): 30 mg/kg/day
- NOAEL (rabbit; [29]): 30 mg/kg/day
- NEL (mouse [7]; systemic / organ weight / liver / absolute + systemic / organ weight / liver / relative to body weight + systemic / pathology gross / liver…): 12.8 mg/kg/day
- LEL (mouse [7]; [30]): 58.7 mg/kg/day
- LOAEL (mouse [7]; [30]): 58.7 mg/kg/day
- NOAEL (mouse [7]; [30]): 12.8 mg/kg/day
- LOAEL (mouse [8]; [31]): 58.7 mg/kg/day
- NOAEL (mouse [8]; [31]): 12.8 mg/kg/day
- LEL (mouse [8]; [32]): 12.8 mg/kg/day
- NEL (mouse [8]; [32]): < 12.8 mg/kg/day
- LEL (dog [9]): 4.77 mg/kg/day
- LOAEL (dog [9]): 4.77 mg/kg/day
- NEL (dog [9]): 1.58 mg/kg/day
- NOAEL (dog [9]): 1.58 mg/kg/day

SMILES: C[C@]12CCC(=O)C=C1CC[C@@H]1[C@@H]2CC[C@]2(C)C(=O)CC[C@@H]12 [4-Androstene-3,17-dione]
- LEL (mouse [10]; systemic / pathology microscopic / adrenal gland / atrophy): 5 mg/kg/day
- NEL (mouse [10]; systemic / pathology microscopic / adrenal gland / atrophy + systemic / pathology microscopic / adrenal gland / vacuolization): 1 mg/kg/day
- LOAEL (mouse [10]; [33]): > 50 mg/kg/day
- NOAEL (mouse [10]; [33]): ≥ 50 mg/kg/day
- LEL (rat [11]; [34]): 1 mg/kg/day
- NEL (rat [11]; [34]): < 1 mg/kg/day
- LOAEL (rat [11]; [35]): > 50 mg/kg/day
- NOAEL (rat [11]; [35]): ≥ 50 mg/kg/day
- LEL (rat [12]; [36]): 10 mg/kg/day
- NEL (rat [12]; [36]): < 10 mg/kg/day
- LOAEL (rat [12]; [37]): 50 mg/kg/day
- NOAEL (rat [12]; [37]): 20 mg/kg/day
- LOAEL (mouse [13]; [38]): 2 mg/kg/day
- NOAEL (mouse [13]; [38]): < 2 mg/kg/day
- LEL (mouse [13]; [39]): 2 mg/kg/day
- NEL (mouse [13]; [39]): < 2 mg/kg/day
